Experimental data published in paper PMC10289903 (Investigational New Drugs, 2023).
Like-named read-outs stand apart in the source and are kept apart here.

Tested on: patients with locally advanced or metastatic solid tumors
Excerpt: This was a Phase Ib, multicenter, open-label, dose-finding clinical trial (NCT02610075). […] Three types of treatment schedules were investigated: cohorts bid 1, bid 2, qd 1.1, qd 2.1 and qd 3.1 received bid or qd treatment on a 5/9 schedule (5 days on treatment, followed by 9 days off) on a 14-day cycle. Cohorts qd 1.2, qd 2.2, and qd 3.2 received treatment on a 5/2 schedule (5 days on followed by 2 days off for 2 of 3 weeks) in a 21-day cycle. Cohorts qd 2.3 and qd 3.3 received treatment on a weekly 5/2 schedule in a 21-day cycle (Table 1). The highest dose level(s) at which less than one-third of evaluable patients (none of 3 patients or 1 of 6 patients) experienced a dose-limiting toxicity (DLT) was declared the MTD.
The per protocol analysis set was defined as a subset of the full analysis set, excluding subjects having an important protocol deviation, to be used for analyses of efficacy endpoints if appropriate.

[1] = qd 2.3: 250 mg qd 5/2 weekly (n=10)

C=CCn1c(=O)c2cnc(Nc3ccc(N4CCN(C)CC4)cc3)nc2n1-c1cccc(C(C)(C)O)n1 [adavosertib, Adavosertib]
Thrombocytopenia (treatment-related AE) (qd 2.1: 250 mg qd 5/9 (n=4)): 0 n (%) | Urinary tract infection (treatment-emergent AE) (qd 2.1: 250 mg qd 5/9 (n=4)): 0 n (%) | Vomiting (treatment-emergent AE) (qd 2.1: 250 mg qd 5/9 (n=4)): 0 n (%) | Vomiting (treatment-related AE) (qd 2.1: 250 mg qd 5/9 (n=4)): 0 n (%) | Abdominal pain (treatment-emergent AE) (qd 2.2: 250 mg qd 5/2 (n=3)): 0 n (%) | Abdominal pain (treatment-related AE) (qd 2.2: 250 mg qd 5/2 (n=3)): 0 n (%) | Alanine aminotransferase increased (treatment-emergent AE) (qd 2.2: 250 mg qd 5/2 (n=3)): 1 (33.3) n (%) | Anemia (treatment-emergent AE) (qd 2.2: 250 mg qd 5/2 (n=3)): 1 (33.3) n (%) | Anemia (treatment-related AE) (qd 2.2: 250 mg qd 5/2 (n=3)): 1 (33.3) n (%) | Any AE (treatment-emergent) (qd 2.2: 250 mg qd 5/2 (n=3)): 3 (100) n (%) | Any grade ≥ 3 AE (qd 2.2: 250 mg qd 5/2 (n=3)): 3 (100.0) n (%) | Any treatment-related AE (qd 2.2: 250 mg qd 5/2 (n=3)): 3 (100) n (%) | Any treatment-related grade ≥ 3 AE (qd 2.2: 250 mg qd 5/2 (n=3)): 3 (100.0) n (%) | Asthenia (treatment-emergent AE) (qd 2.2: 250 mg qd 5/2 (n=3)): 1 (33.3) n (%) | Asthenia (treatment-related AE) (qd 2.2: 250 mg qd 5/2 (n=3)): 1 (33.3) n (%) | Back pain (treatment-emergent AE) (qd 2.2: 250 mg qd 5/2 (n=3)): 1 (33.3) n (%) | Constipation (treatment-emergent AE) (qd 2.2: 250 mg qd 5/2 (n=3)): 1 (33.3) n (%) | Constipation (treatment-related AE) (qd 2.2: 250 mg qd 5/2 (n=3)): 1 (33.3) n (%) | Cough (treatment-emergent AE) (qd 2.2: 250 mg qd 5/2 (n=3)): 1 (33.3) n (%) | Decreased appetite (treatment-emergent AE) (qd 2.2: 250 mg qd 5/2 (n=3)): 1 (33.3) n (%) | Decreased appetite (treatment-related AE) (qd 2.2: 250 mg qd 5/2 (n=3)): 0 n (%) | Dehydration (treatment-emergent AE) (qd 2.2: 250 mg qd 5/2 (n=3)): 2 (66.7) n (%) | Dehydration (treatment-related AE) (qd 2.2: 250 mg qd 5/2 (n=3)): 1 (33.3) n (%) | Diarrhea (treatment-emergent AE) (qd 2.2: 250 mg qd 5/2 (n=3)): 2 (66.7) n (%) | Diarrhea (treatment-related AE) (qd 2.2: 250 mg qd 5/2 (n=3)): 2 (66.7) n (%) | Dizziness (treatment-emergent AE) (qd 2.2: 250 mg qd 5/2 (n=3)): 0 n (%) | Dyspepsia (treatment-emergent AE) (qd 2.2: 250 mg qd 5/2 (n=3)): 0 n (%) | Dyspepsia (treatment-related AE) (qd 2.2: 250 mg qd 5/2 (n=3)): 0 n (%) | Dyspnea (treatment-emergent AE) (qd 2.2: 250 mg qd 5/2 (n=3)): 0 n (%) | Edema peripheral (treatment-emergent AE) (qd 2.2: 250 mg qd 5/2 (n=3)): 0 n (%) | Fall (treatment-emergent AE) (qd 2.2: 250 mg qd 5/2 (n=3)): 1 (33.3) n (%) | Fatigue (treatment-emergent AE) (qd 2.2: 250 mg qd 5/2 (n=3)): 2 (66.7) n (%) | Fatigue (treatment-related AE) (qd 2.2: 250 mg qd 5/2 (n=3)): 2 (66.7) n (%) | Headache (treatment-emergent AE) (qd 2.2: 250 mg qd 5/2 (n=3)): 0 n (%) | Hypokalemia (treatment-emergent AE) (qd 2.2: 250 mg qd 5/2 (n=3)): 1 (33.3) n (%) | Insomnia (treatment-emergent AE) (qd 2.2: 250 mg qd 5/2 (n=3)): 0 n (%) | Muscle spasms (treatment-emergent AE) (qd 2.2: 250 mg qd 5/2 (n=3)): 1 (33.3) n (%) | Myalgia (treatment-emergent AE) (qd 2.2: 250 mg qd 5/2 (n=3)): 0 n (%) | Myalgia (treatment-related AE) (qd 2.2: 250 mg qd 5/2 (n=3)): 0 n (%) | Nausea (treatment-emergent AE) (qd 2.2: 250 mg qd 5/2 (n=3)): 2 (66.7) n (%) | Nausea (treatment-related AE) (qd 2.2: 250 mg qd 5/2 (n=3)): 2 (66.7) n (%) | Neutropenia (treatment-emergent AE) (qd 2.2: 250 mg qd 5/2 (n=3)): 0 n (%) | Neutropenia (treatment-related AE) (qd 2.2: 250 mg qd 5/2 (n=3)): 0 n (%) | Pneumonia (treatment-emergent AE) (qd 2.2: 250 mg qd 5/2 (n=3)): 1 (33.3) n (%) | Pyrexia (treatment-emergent AE) (qd 2.2: 250 mg qd 5/2 (n=3)): 2 (66.7) n (%) | Rash (treatment-emergent AE) (qd 2.2: 250 mg qd 5/2 (n=3)): 1 (33.3) n (%) | Thrombocytopenia (treatment-emergent AE) (qd 2.2: 250 mg qd 5/2 (n=3)): 1 (33.3) n (%) | Thrombocytopenia (treatment-related AE) (qd 2.2: 250 mg qd 5/2 (n=3)): 1 (33.3) n (%) | Urinary tract infection (treatment-emergent AE) (qd 2.2: 250 mg qd 5/2 (n=3)): 1 (33.3) n (%) | Vomiting (treatment-emergent AE) (qd 2.2: 250 mg qd 5/2 (n=3)): 2 (66.7) n (%) | Vomiting (treatment-related AE) (qd 2.2: 250 mg qd 5/2 (n=3)): 2 (66.7) n (%) | Abdominal pain (treatment-emergent AE) [1]: 2 (20.0) n (%) | Abdominal pain (treatment-related AE) [1]: 0 n (%) | Alanine aminotransferase increased (treatment-emergent AE) [1]: 1 (10.0) n (%) | Anemia (treatment-emergent AE) [1]: 2 (20.0) n (%) | Anemia (treatment-related AE) [1]: 1 (10.0) n (%) | Any AE (treatment-emergent) [1]: 8 (80.0) n (%) | Any grade ≥ 3 AE [1]: 5 (50.0) n (%) | Any treatment-related AE [1]: 8 (80.0) n (%) | Any treatment-related grade ≥ 3 AE [1]: 4 (40.0) n (%) | Asthenia (treatment-emergent AE) [1]: 0 n (%) | Asthenia (treatment-related AE) [1]: 0 n (%) | Back pain (treatment-emergent AE) [1]: 2 (20.0) n (%) | Constipation (treatment-emergent AE) [1]: 2 (20.0) n (%) | Constipation (treatment-related AE) [1]: 2 (20.0) n (%) | Cough (treatment-emergent AE) [1]: 0 n (%) | Decreased appetite (treatment-emergent AE) [1]: 3 (30.0) n (%) | Decreased appetite (treatment-related AE) [1]: 2 (20.0) n (%) | Dehydration (treatment-emergent AE) [1]: 5 (50.0) n (%) | Dehydration (treatment-related AE) [1]: 2 (20.0) n (%) | Diarrhea (treatment-emergent AE) [1]: 7 (70.0) n (%) | Diarrhea (treatment-related AE) [1]: 7 (70.0) n (%) | Dizziness (treatment-emergent AE) [1]: 2 (20.0) n (%) | Dyspepsia (treatment-emergent AE) [1]: 0 n (%) | Dyspepsia (treatment-related AE) [1]: 0 n (%) | Dyspnea (treatment-emergent AE) [1]: 0 n (%) | Edema peripheral (treatment-emergent AE) [1]: 2 (20.0) n (%) | Fall (treatment-emergent AE) [1]: 2 (20.0) n (%) | Fatigue (treatment-emergent AE) [1]: 3 (30.0) n (%) | Fatigue (treatment-related AE) [1]: 2 (20.0) n (%) | Headache (treatment-emergent AE) [1]: 0 n (%) | Hypokalemia (treatment-emergent AE) [1]: 3 (30.0) n (%) | Insomnia (treatment-emergent AE) [1]: 3 (30.0) n (%) | Muscle spasms (treatment-emergent AE) [1]: 1 (10.0) n (%) | Myalgia (treatment-emergent AE) [1]: 2 (20.0) n (%) | Myalgia (treatment-related AE) [1]: 2 (20.0) n (%) | Nausea (treatment-emergent AE) [1]: 3 (30.0) n (%) | Nausea (treatment-related AE) [1]: 2 (20.0) n (%) | Neutropenia (treatment-emergent AE) [1]: 1 (10.0) n (%) | Neutropenia (treatment-related AE) [1]: 1 (10.0) n (%) | Pneumonia (treatment-emergent AE) [1]: 1 (10.0) n (%) | Pyrexia (treatment-emergent AE) [1]: 0 n (%) | Rash (treatment-emergent AE) [1]: 2 (20.0) n (%) | Thrombocytopenia (treatment-emergent AE) [1]: 3 (30.0) n (%) | Thrombocytopenia (treatment-related AE) [1]: 3 (30.0) n (%) | Urinary tract infection (treatment-emergent AE) [1]: 1 (10.0) n (%) | Vomiting (treatment-emergent AE) [1]: 2 (20.0) n (%) | Vomiting (treatment-related AE) [1]: 1 (10.0) n (%) | Abdominal pain (treatment-emergent AE) (qd 3.1: 300 mg qd 5/9 (n=4)): 1 (25.0) n (%) | Abdominal pain (treatment-related AE) (qd 3.1: 300 mg qd 5/9 (n=4)): 1 (25.0) n (%) | Alanine aminotransferase increased (treatment-emergent AE) (qd 3.1: 300 mg qd 5/9 (n=4)): 0 n (%) | Anemia (treatment-emergent AE) (qd 3.1: 300 mg qd 5/9 (n=4)): 1 (25.0) n (%) | Anemia (treatment-related AE) (qd 3.1: 300 mg qd 5/9 (n=4)): 0 n (%) | Any AE (treatment-emergent) (qd 3.1: 300 mg qd 5/9 (n=4)): 4 (100) n (%) | Any grade ≥ 3 AE (qd 3.1: 300 mg qd 5/9 (n=4)): 3 (75.0) n (%) | Any treatment-related AE (qd 3.1: 300 mg qd 5/9 (n=4)): 2 (50.0) n (%) | Any treatment-related grade ≥ 3 AE (qd 3.1: 300 mg qd 5/9 (n=4)): 1 (25.0) n (%) | Asthenia (treatment-emergent AE) (qd 3.1: 300 mg qd 5/9 (n=4)): 0 n (%) | Asthenia (treatment-related AE) (qd 3.1: 300 mg qd 5/9 (n=4)): 0 n (%) | Back pain (treatment-emergent AE) (qd 3.1: 300 mg qd 5/9 (n=4)): 1 (25.0) n (%) | Constipation (treatment-emergent AE) (qd 3.1: 300 mg qd 5/9 (n=4)): 1 (25.0) n (%) | Constipation (treatment-related AE) (qd 3.1: 300 mg qd 5/9 (n=4)): 0 n (%) | Cough (treatment-emergent AE) (qd 3.1: 300 mg qd 5/9 (n=4)): 1 (25.0) n (%) | Decreased appetite (treatment-emergent AE) (qd 3.1: 300 mg qd 5/9 (n=4)): 0 n (%) | Decreased appetite (treatment-related AE) (qd 3.1: 300 mg qd 5/9 (n=4)): 0 n (%)
